Reference: patent US20190270778A1, “Cyclic Peptides As C5a Receptor Antagonists” (priority 2016, published 2019)
Read-outs that look alike come from different tables or passages of the source.

How the values were obtained:
[1] = amide bond
[2] = amide bond, 18-membered ring
[3] = the molecule shown is the open-chain precursor; amide bond; 18-membered ring

CCc1ccc2c(C[C@@H]3NC(=O)[C@@H](C[C@H]4CC[C@@H](O)CC4)NC(=O)[C@@H]4C[C@@H](OC(C)(C)C)CN4C(=O)[C@@H](NC(=O)[C@H](Cc4ccccc4)N(CC(=O)OC(C)(C)C)C(=O)OC(C)(C)C)CCCNC(=O)[C@H](CCCNC(=N)NS(=O)(=O)c4c(C)c(C)c5c(c4C)CC(C)(C)O5)NC3=O)cn(C(=O)OC(C)(C)C)c2c1
ring closure, yield of all isomers ([1]; from CCc1ccc2c(C[C@H](NC(=O)[C@@H](C[C@H]3CC[C@@H](O)CC3)NC(=O)[C@@H]3C[C@@H](OC(C)(C)C)CN3)C(=O)N[C@@H](CCCNC(=N)NS(=O)(=O)c3c(C)c(C)c4c(c3C)CC(C)(C)O4)C(=O)NCCC[C@H](NC(=O)[C@H](Cc3ccccc3)N(CC(=O)OC(C)(C)C)C(=O)OC(C)(C)C)C(=O)O)cn(C(=O)OC(C)(C)C)c2c1): 42%

Cc1c(C)c(S(=O)(=O)NC(=N)NCCC[C@@H]2NC(=O)[C@H](Cc3c[nH]c4ccccc34)NC(=O)[C@@H](C[C@H]3CC[C@@H](O)CC3)NC(=O)[C@@H]3C[C@H](NC(=O)OC(C)(C)C)CN3C(=O)[C@@H](NC(=O)[C@H](Cc3ccccc3)N(CC(=O)OC(C)(C)C)C(=O)OC(C)(C)C)CCCNC2=O)c(C)c2c1OC(C)(C)C2
ring closure, yield of all isomers ([1]; from Cc1c(C)c(S(=O)(=O)NC(=N)NCCC[C@H](NC(=O)[C@H](Cc2c[nH]c3ccccc23)NC(=O)[C@@H](C[C@H]2CC[C@@H](O)CC2)NC(=O)[C@@H]2C[C@H](NC(=O)OC(C)(C)C)CN2)C(=O)NCCC[C@H](NC(=O)[C@H](Cc2ccccc2)N(CC(=O)OC(C)(C)C)C(=O)OC(C)(C)C)C(=O)O)c(C)c2c1OC(C)(C)C2): 100%

Cc1c(C)c(S(=O)(=O)NC(=N)NCCC[C@@H]2NC(=O)[C@H](Cc3cn(C(=O)OC(C)(C)C)c4ccccc34)NC(=O)[C@@H](C[C@H]3CC[C@@H](O)CC3)NC(=O)[C@@H]3C[C@@H](OC(C)(C)C)CN3C(=O)[C@@H](NC(=O)OC(C)(C)C)CCCNC2=O)c(C)c2c1OC(C)(C)C2
ring closure, yield of all isomers ([1]; from Cc1c(C)c(S(=O)(=O)NC(=N)NCCC[C@H](NC(=O)[C@H](Cc2cn(C(=O)OC(C)(C)C)c3ccccc23)NC(=O)[C@@H](C[C@H]2CC[C@@H](O)CC2)NC(=O)[C@@H]2C[C@@H](OC(C)(C)C)CN2)C(=O)NCCC[C@H](NC(=O)OC(C)(C)C)C(=O)O)c(C)c2c1OC(C)(C)C2, HATU, THF, 13.1 mM, 25.0 °C, 0.25 h): 95.3%

Cc1c(C)c(S(=O)(=O)NC(=N)NCCC[C@@H]2NC(=O)[C@H](Cc3cn(C(=O)OC(C)(C)C)c4ccccc34)NC(=O)[C@@H](C[C@H]3CC[C@@H](O)CC3)NC(=O)[C@@H]3C[C@@H](OC(C)(C)C)CN3C(=O)[C@@H](NC(=O)[C@H](Cc3ccccc3)N(CC(=O)OC(C)(C)C)C(=O)OC(C)(C)C)CCCNC2=O)c(C)c2c1OC(C)(C)C2
ring closure, yield of all isomers ([1]; from Cc1c(C)c(S(=O)(=O)NC(=N)NCCC[C@H](NC(=O)[C@H](Cc2cn(C(=O)OC(C)(C)C)c3ccccc23)NC(=O)[C@@H](C[C@H]2CC[C@@H](O)CC2)NC(=O)[C@@H]2C[C@@H](OC(C)(C)C)CN2)C(=O)NCCC[C@H](NC(=O)[C@H](Cc2ccccc2)N(CC(=O)OC(C)(C)C)C(=O)OC(C)(C)C)C(=O)O)c(C)c2c1OC(C)(C)C2, HATU, THF, 14.1 mM, 25.0 °C, 0.5 h): 87%

Cc1c(C)c(S(=O)(=O)NC(=N)NCCC[C@@H]2NC(=O)[C@H](Cc3cn(C(=O)OC(C)(C)C)c4ccccc34)NC(=O)[C@@H](C[C@H]3CC[C@@H](O)CC3)NC(=O)[C@@H]3C[C@@H](OCC(=O)OC(C)(C)C)CN3C(=O)[C@@H](NC(=O)[C@H](Cc3ccccc3)N(CC(=O)OC(C)(C)C)C(=O)OC(C)(C)C)CCCNC2=O)c(C)c2c1OC(C)(C)C2
ring closure, yield of all isomers ([1]; from Cc1c(C)c(S(=O)(=O)NC(=N)NCCC[C@H](NC(=O)[C@H](Cc2cn(C(=O)OC(C)(C)C)c3ccccc23)NC(=O)[C@@H](C[C@H]2CC[C@@H](O)CC2)NC(=O)[C@@H]2C[C@@H](OCC(=O)OC(C)(C)C)CN2)C(=O)NCCC[C@H](NC(=O)[C@H](Cc2ccccc2)N(CC(=O)OC(C)(C)C)C(=O)OC(C)(C)C)C(=O)O)c(C)c2c1OC(C)(C)C2): 83%

Cc1c(C)c(S(=O)(=O)NC(=N)NCCC[C@@H]2NC(=O)[C@H](Cc3cn(C(=O)OC(C)(C)C)c4ncccc34)NC(=O)[C@@H](C[C@H]3CC[C@@H](O)CC3)NC(=O)[C@@H]3C[C@@H](OC(C)(C)C)CN3C(=O)[C@@H](NC(=O)[C@H](Cc3ccccc3)N(CC(=O)OC(C)(C)C)C(=O)OC(C)(C)C)CCCNC2=O)c(C)c2c1OC(C)(C)C2
ring closure, yield of all isomers ([1]; from Cc1c(C)c(S(=O)(=O)NC(=N)NCCC[C@H](NC(=O)[C@H](Cc2cn(C(=O)OC(C)(C)C)c3ncccc23)NC(=O)[C@@H](C[C@H]2CC[C@@H](O)CC2)NC(=O)[C@@H]2C[C@@H](OC(C)(C)C)CN2)C(=O)NCCC[C@H](NC(=O)[C@H](Cc2ccccc2)N(CC(=O)OC(C)(C)C)C(=O)OC(C)(C)C)C(=O)O)c(C)c2c1OC(C)(C)C2): 93.4%

((S)-1-(((3R,6S,9S,15S,19R,20aS)-9-(3-guanidinopropyl)-19-hydroxy-3-(((1s,4S)-4-hydroxycyclohexyl)methyl)-6-((5-methoxy-1H-indol-3-yl)methyl)-1,4,7,10,16-pentaoxoicosahydropyrrolo[1,2-a][1,4,7,10,13]pentaazacyclooctadecin-15-yl)amino)-1-oxo-3-phenylpropan-2-yl)glycine
ring closure, yield after HPLC ([2]; 2 steps): 6%

((S)-1-(((3R,6S,9S,15S,19R,20aS)-9-(3-guanidinopropyl)-19-hydroxy-3-(((1s,4S)-4-hydroxycyclohexyl)methyl)-6-((6-methoxy-1H-indol-3-yl)methyl)-1,4,7,10,16-pentaoxoicosahydropyrrolo[1,2-a][1,4,7,10,13]pentaazacyclooctadecin-15-yl)amino)-1-oxo-3-phenylpropan-2-yl)glycine
ring closure, yield after HPLC ([2]; with chain assembly): 2.3%

((S)-1-(((3R,6S,9S,15S,19S,20aS)-6-((1H-indol-3-yl)methyl)-19-acetamido-9-(3-guanidinopropyl)-3-(((1s,4S)-4-hydroxycyclohexyl)methyl)-1,4,7,10,16-pentaoxoicosahydropyrrolo[1,2-a][1,4,7,10,13]pentaazacyclooctadecin-15-yl)amino)-1-oxo-3-phenylpropan-2-yl)glycine
ring closure, yield after HPLC ([2]; 2 steps): 30%

((S)-1-(((31R,6S,9S,15S,19R,20aS)-6-((1H-indazol-3-yl)methyl)-9-(3-guanidinopropyl)-19-hydroxy-3-(((1s,4S)-4-hydroxycyclohexyl)methyl)-1,4,7,10,16-pentaoxoicosahydropyrrolo[1,2-a][1,4,7,10,13]pentaazacyclooctadecin-15-yl)amino)-1-oxo-3-phenylpropan-2-yl)glycine
ring closure, yield after HPLC ([2]; 2 steps): 35%

H-Hyp(tBu)-dAla(cis-4-hydroxycyclohexyl)-Trp(Boc,6-Et)-Arg(Pbf)-(Nδ)Orn(Nα-[Boc-N(CH2CO2tBu)-Phe])-OH
ring closure, isolated yield [3]: 42%
